Measurements as given in ChEMBL document CHEMBL1130528, “Synthesis of inhibitors of glutamyl-tRNA synthetase” (Bioorg Med Chem Lett, 1997).

Target: Glutamate--tRNA ligase (Escherichia coli) (UniProt P04805)
Assay: Compound was tested for the inhibition of Escherichia coli glutamyl-t-RNA synthetase; NI means No inhibition; call rule not given here

Glutamate--tRNA ligase (Escherichia coli), sequence (P04805 whole entry, looked up): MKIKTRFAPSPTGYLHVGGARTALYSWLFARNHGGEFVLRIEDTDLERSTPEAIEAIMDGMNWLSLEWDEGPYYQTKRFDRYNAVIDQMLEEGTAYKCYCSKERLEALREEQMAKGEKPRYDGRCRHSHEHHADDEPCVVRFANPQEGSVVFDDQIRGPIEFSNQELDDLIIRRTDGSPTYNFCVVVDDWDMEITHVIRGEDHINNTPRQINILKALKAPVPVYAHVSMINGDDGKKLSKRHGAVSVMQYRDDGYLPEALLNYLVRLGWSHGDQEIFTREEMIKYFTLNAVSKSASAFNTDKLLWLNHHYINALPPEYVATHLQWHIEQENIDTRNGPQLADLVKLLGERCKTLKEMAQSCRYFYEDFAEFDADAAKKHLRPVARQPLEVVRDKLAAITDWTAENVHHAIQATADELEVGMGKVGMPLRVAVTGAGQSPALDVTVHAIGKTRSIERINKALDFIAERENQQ

CCCCCCCCOC(=O)C(N)CCC(=O)O (stereo unspecified)
Ki: Not Active
